In patent US6624143B1, “Calcium salts of lipopeptide antibiotics, method for producing same and their use” (Aventis Pharma Deutschland GmbH, priority 1998, dated 2003):
Structures can show the parent of a compound that is named as a salt. Where two headings read alike, the source gives them in different places.

Legend:
Format in all cases: cell-based
Streptoc. milleri, GR12 = assay: serial dilution test, MIC; conditions: S
From the text: (§1) Table 3: In-vitro activity of the A1437D Ca salt against Gram-positive bacteria in the serial dilution test indicated as the minimum inhibitory concentration (MIC)

Staph. epidermidis, GO42 = assay: serial dilution test, MIC; conditions: Staphylococcus epidermidis, oxaR
From the text: as §1

[1] = tested on: Enteroc. gallinarium, HM8; assay: serial dilution test, MIC; conditions: vanR, tetR
From the text: as §1

Streptoc. mitis, GR16 = assay: serial dilution test, MIC; conditions: eryR
From the text: as §1

Streptoc. gr. G, GOCB2 = assay: serial dilution test, MIC; conditions: tetR, rifR, novR
From the text: as §1

Enteroc. faecalis, HM9 = assay: serial dilution test, MIC; conditions: novR, vanR, eryR
From the text: as §1

Enteroc. faecium, HT12 = assay: serial dilution test, MIC; conditions: teiR, vanR, eryR, tetR
From the text: as §1

Enteroc. faecium, AP9 = assay: serial dilution test, MIC; conditions: vanR, teiR
From the text: as §1

Enteroc. faecium, IP2 = assay: serial dilution test, MIC; conditions: teiR, vanR, eryR, tetR
From the text: as §1

Enteroc. faecium, HM3 = assay: serial dilution test, MIC; conditions: teiR, vanR, eryR
From the text: as §1

[2] = tested on: Staphyloc. coagul. negativ; assay: serial dilution test, MIC; conditions: oflR, oxaR, tetR
From the text: as §1

Staph. aureus, 11DU5 = assay: serial dilution test, MIC; conditions: Staphylococcus aureus, novR, tetR
From the text: as §1

[3] = tested on: Streptoc. pyogenes, A1F16; assay: serial dilution test, MIC; conditions: eryR
From the text: as §1

Staph. aureus, 11HT1 = assay: serial dilution test, MIC; conditions: Staphylococcus aureus, novR
From the text: as §1

[4] = tested on: Streptoc. pyogenes, A1SJ1; assay: serial dilution test, MIC; conditions: eryR
From the text: as §1

Staphyloc. aureus, 11HT3 = assay: serial dilution test, MIC; conditions: S
From the text: as §1

Staph. aureus, 11GO64 = assay: serial dilution test, MIC; conditions: Staphylococcus aureus, oflR, oxaR, eryR, novR
From the text: as §1

Enteroc. faecalis, DU18 = assay: serial dilution test, MIC; conditions: tetR, novR
From the text: as §1

[5] = tested on: Staph. aureus, ATCC 13709; assay: serial dilution test, MIC; conditions: Staphylococcus aureus, ATCC13709
From the text: as §1

Staph. epidermidis, GO20 = assay: serial dilution test, MIC; conditions: Staphylococcus epidermidis, tetR
From the text: as §1

Staph. aureus, 11CB20 = assay: serial dilution test, MIC; conditions: Staphylococcus aureus, oxaR, eryR, tetR
From the text: as §1

Enteroc. faecalis, UC5 = assay: serial dilution test, MIC; conditions: ATCC 29212 novR
From the text: as §1

[6] = tested on: Streptoc. pneumoniae 30B12; assay: serial dilution test, MIC; conditions: eryR
From the text: as §1

monkey blood = conditions: rhesus monkey, 3 h
Protocol: For the measurement of hemolytic activity, freshly taken, venous human, Rhesus monkey or beagle dog blood is used. The blood is collected in heparinized tubes and distributed in aliquots of 200 μl into 12 polyethylene tubes. One aliquot is treated with 200 μl of distilled water and used as a 100% standard, another is mixed with 200 μl of physiological saline solution (0.9% NaCl). 200 μl each of substance dilutions in physiological saline solution to 1600, 800, 400, 200, 100, 50, 25, 12.5, 6.25 and 3.125 mg/l are distributed into the other tubes. All tubes are carefully swung and then incubated for 3 hours at 37° C. The 100% standard is then made up with 5 ml of distilled water, the other tubes with 5 ml each of physiological saline solution, and centrifuged at 700 g for 5 minutes.
The hemolysis is determined by measurement of the absorption of the supernatant in a spectrophotometer at a wavelength of 540 nm. The absorption of the standard with complete hemolysis is set at 100%. The absorption of the test preparation dilutions and of the 0% standard are measured and indicated as a percentage of the maximally inducible hemolysis.

Structure (SMILES): CC(C)CCCCCCC/C=C\CC(=O)N[C@@H](CC(N)=O)C(=O)N[C@@H]1C(=O)N2CCCC[C@@H]2C(=O)N[C@@H]([C@H](C)C(=O)O)C(=O)N[C@@H](CC(=O)O)C(=O)NCC(=O)N[C@@H](CC(=O)O)C(=O)NCC(=O)N[C@H]([C@@H](C)N)C(=O)N[C@@H](C(C)C)C(=O)N2CCC[C@H]2C(=O)N[C@@H]1C [A1437D Ca salt]
- MIC (Streptoc. milleri, GR12): 0.3 µg/mL
- MIC (Staph. epidermidis, GO42): 0.3 µg/mL
- MIC [1]: 0.15 µg/mL
- MIC (Streptoc. mitis, GR16): 0.3 µg/mL
- MIC (Streptoc. gr. G, GOCB2): 0.3 µg/mL
- MIC (Enteroc. faecalis, HM9): 2.5 µg/mL
- MIC (Enteroc. faecium, HT12): 0.6 µg/mL
- MIC (Enteroc. faecium, AP9): 0.6 µg/mL
- MIC (Enteroc. faecium, IP2): 0.6 µg/mL
- MIC (Enteroc. faecium, HM3): 0.6 µg/mL
- MIC [2]: 0.3 µg/mL
- MIC (Staph. aureus, 11DU5): 0.08 µg/mL
- MIC [3]: 0.6 µg/mL
- MIC (Staph. aureus, 11HT1): 0.15 µg/mL
- MIC [4]: 0.6 µg/mL
- MIC (Staphyloc. aureus, 11HT3): 0.04 µg/mL
- MIC (Staph. aureus, 11GO64): 0.6 µg/mL
- MIC (Enteroc. faecalis, DU18): 0.6 µg/mL
- MIC [5]: 0.6 µg/mL
- MIC (Staph. epidermidis, GO20): 0.3 µg/mL
- MIC (Staph. aureus, 11CB20): 0.6 µg/mL
- MIC (Enteroc. faecalis, UC5): 2.5 µg/mL
- MIC [6]: 0.3 µg/mL
- in vitro hemolysis, percentage of the maximally inducible hemolysis (monkey blood; 12.5 mg/l): 0%
- in vitro hemolysis, percentage of the maximally inducible hemolysis (monkey blood; 25 mg/l): 0%
- in vitro hemolysis, percentage of the maximally inducible hemolysis (monkey blood; 50 mg/l): 0%
- in vitro hemolysis, percentage of the maximally inducible hemolysis (monkey blood; 100 mg/l): 3%
- in vitro hemolysis, percentage of the maximally inducible hemolysis (monkey blood; 200 mg/l): 6%
- in vitro hemolysis, percentage of the maximally inducible hemolysis (monkey blood; 400 mg/l): 9%
- in vitro hemolysis, percentage of the maximally inducible hemolysis (monkey blood; 800 mg/l): 15%
- in vitro hemolysis, percentage of the maximally inducible hemolysis (monkey blood; 1600 mg/l): 19%
